Tests used:
Test in all cases: Nanosyn kinase profiling
Assay type in all cases: biochemical
Conditions in all cases: read-out: Percentage inhibition; for inhibition at 0.1 µM: 0.1 µM inhibitor; for inhibition at 1 µM: 1 µM inhibitor
[1] = biological target: T1, PYK2 (Homo sapiens, UniProt Q14289)
T1 construct: purchased Nanosyn (enzymatic panel); SGC in-house recombinant human kinases (DSF panel); Invitrogen (ALK1-6)
How it was run: (§1)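 Percent inhibition of each kinase was measured with the inhibitor at 0.1 µM and at 1 µM, as part of a 200-kinase human selectivity panel.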

[2] = biological target: T2, NEK9 (Homo sapiens, UniProt Q8TD19)
T2 construct: purchased Nanosyn (enzymatic panel); SGC in-house recombinant human kinases (DSF panel); Invitrogen (ALK1-6)
T2 sequence (Q8TD19 1-979): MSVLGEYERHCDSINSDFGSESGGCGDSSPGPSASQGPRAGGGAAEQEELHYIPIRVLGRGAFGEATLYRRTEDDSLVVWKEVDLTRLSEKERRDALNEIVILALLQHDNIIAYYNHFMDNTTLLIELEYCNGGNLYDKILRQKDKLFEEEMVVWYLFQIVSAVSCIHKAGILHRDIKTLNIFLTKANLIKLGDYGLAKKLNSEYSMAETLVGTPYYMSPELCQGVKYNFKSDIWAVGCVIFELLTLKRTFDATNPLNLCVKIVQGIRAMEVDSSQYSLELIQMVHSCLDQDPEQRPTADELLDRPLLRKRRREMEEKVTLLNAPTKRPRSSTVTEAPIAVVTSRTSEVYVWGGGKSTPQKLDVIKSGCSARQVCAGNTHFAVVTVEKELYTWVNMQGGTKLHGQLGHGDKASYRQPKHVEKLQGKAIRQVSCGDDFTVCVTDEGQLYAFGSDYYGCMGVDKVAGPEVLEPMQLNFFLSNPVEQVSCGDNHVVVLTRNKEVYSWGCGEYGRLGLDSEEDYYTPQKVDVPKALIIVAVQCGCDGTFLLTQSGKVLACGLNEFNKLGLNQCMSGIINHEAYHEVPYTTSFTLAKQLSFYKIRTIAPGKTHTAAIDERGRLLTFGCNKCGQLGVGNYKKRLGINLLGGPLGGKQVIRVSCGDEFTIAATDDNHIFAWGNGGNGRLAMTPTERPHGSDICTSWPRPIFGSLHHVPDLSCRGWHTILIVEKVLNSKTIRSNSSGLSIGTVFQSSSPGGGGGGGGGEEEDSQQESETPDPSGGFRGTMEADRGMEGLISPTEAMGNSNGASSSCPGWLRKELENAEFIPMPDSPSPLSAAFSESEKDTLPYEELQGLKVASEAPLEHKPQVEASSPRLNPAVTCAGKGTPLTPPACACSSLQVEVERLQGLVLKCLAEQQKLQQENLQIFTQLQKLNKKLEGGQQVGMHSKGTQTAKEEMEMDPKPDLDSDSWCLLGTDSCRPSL
How it was run: as §1

[3] = biological target: T3, PKCβ2 (Homo sapiens, UniProt P05771)
T3 construct: purchased Nanosyn (enzymatic panel); SGC in-house recombinant human kinases (DSF panel); Invitrogen (ALK1-6)
How it was run: as §1

[4] = biological target: T4, CLK3 (Homo sapiens, UniProt P49761)
T4 construct: purchased Nanosyn (enzymatic panel); SGC in-house recombinant human kinases (DSF panel); Invitrogen (ALK1-6)
How it was run: as §1

[5] = biological target: T5, CAMK1δ (Homo sapiens, UniProt Q8IU85)
T5 construct: purchased Nanosyn (enzymatic panel); SGC in-house recombinant human kinases (DSF panel); Invitrogen (ALK1-6)
How it was run: as §1

[6] = biological target: T6, PRKG1 (Homo sapiens, UniProt Q13976)
T6 construct: purchased Nanosyn (enzymatic panel); SGC in-house recombinant human kinases (DSF panel); Invitrogen (ALK1-6)
T6 sequence (Q13976 1-671): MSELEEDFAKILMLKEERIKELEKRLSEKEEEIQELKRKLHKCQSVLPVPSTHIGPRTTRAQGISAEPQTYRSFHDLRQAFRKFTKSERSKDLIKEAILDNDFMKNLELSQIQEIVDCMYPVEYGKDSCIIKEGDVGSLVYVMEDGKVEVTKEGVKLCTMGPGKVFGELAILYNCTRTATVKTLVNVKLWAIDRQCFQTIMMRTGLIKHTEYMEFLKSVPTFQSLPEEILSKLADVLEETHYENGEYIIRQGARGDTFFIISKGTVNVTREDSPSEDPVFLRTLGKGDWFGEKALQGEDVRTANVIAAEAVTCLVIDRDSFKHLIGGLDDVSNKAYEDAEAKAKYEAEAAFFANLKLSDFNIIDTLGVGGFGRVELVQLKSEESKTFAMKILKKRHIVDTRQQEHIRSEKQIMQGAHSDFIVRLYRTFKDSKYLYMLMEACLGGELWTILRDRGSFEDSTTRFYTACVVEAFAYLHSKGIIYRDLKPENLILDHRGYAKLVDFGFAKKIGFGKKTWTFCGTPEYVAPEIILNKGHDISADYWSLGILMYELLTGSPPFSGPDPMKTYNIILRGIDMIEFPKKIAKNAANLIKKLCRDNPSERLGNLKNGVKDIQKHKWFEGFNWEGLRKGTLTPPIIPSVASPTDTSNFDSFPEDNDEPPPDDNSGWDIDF
How it was run: as §1

T5 sequence (Q8IU85 whole entry): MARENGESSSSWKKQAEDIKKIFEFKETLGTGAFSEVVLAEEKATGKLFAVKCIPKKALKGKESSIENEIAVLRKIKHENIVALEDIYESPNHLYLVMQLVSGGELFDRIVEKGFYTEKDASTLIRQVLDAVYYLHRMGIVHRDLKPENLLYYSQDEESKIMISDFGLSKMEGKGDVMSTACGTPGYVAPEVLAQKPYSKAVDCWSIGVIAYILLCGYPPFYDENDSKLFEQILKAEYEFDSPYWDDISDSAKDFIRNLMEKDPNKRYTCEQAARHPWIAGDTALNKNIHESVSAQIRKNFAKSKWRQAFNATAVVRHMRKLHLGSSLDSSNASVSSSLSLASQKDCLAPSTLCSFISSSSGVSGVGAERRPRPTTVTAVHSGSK
T1 sequence (Q14289 whole entry): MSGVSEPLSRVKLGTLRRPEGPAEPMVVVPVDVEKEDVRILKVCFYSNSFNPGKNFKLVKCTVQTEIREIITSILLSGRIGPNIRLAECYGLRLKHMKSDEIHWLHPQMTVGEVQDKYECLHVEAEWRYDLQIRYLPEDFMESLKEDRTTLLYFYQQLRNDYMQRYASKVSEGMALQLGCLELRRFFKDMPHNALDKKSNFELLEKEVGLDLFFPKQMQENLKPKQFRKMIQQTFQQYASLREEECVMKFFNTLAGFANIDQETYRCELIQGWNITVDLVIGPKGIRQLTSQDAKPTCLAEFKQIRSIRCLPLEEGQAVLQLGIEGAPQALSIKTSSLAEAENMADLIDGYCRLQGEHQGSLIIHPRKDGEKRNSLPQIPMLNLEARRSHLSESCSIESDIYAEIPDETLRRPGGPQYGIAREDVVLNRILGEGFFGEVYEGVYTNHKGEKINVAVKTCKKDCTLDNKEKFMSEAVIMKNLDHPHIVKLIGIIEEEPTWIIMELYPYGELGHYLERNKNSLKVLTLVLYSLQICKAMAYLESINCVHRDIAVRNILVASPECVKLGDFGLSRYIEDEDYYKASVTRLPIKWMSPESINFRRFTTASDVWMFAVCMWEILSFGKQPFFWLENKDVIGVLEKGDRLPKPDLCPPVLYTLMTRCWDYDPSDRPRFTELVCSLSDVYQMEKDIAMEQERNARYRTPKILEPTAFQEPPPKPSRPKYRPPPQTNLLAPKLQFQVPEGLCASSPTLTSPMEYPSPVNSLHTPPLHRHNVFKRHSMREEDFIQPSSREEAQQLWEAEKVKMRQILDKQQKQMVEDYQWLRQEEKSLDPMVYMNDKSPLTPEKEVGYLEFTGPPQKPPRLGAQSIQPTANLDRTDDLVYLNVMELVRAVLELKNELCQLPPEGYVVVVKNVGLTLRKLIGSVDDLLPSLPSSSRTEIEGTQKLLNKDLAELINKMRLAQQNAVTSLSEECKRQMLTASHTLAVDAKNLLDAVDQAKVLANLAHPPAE
T3 sequence (P05771 1-673 isoform P05771-2): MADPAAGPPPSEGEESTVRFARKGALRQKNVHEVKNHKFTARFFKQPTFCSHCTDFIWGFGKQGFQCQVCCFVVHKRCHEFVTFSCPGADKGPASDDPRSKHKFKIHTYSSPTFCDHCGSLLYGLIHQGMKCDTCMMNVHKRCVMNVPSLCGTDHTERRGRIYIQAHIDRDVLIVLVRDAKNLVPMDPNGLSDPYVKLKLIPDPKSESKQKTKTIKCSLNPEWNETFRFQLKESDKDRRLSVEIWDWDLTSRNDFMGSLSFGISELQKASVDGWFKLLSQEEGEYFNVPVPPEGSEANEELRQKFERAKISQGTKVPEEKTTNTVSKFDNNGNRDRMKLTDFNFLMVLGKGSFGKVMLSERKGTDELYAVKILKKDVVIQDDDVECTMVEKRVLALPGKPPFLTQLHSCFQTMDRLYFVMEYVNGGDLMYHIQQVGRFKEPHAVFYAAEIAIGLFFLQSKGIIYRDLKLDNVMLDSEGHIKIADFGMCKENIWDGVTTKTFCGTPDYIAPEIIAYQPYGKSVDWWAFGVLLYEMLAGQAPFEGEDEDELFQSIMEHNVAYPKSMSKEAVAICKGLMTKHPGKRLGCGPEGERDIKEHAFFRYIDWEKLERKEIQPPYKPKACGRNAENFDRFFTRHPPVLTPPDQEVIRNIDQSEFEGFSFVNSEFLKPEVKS
T4 sequence (P49761 whole entry): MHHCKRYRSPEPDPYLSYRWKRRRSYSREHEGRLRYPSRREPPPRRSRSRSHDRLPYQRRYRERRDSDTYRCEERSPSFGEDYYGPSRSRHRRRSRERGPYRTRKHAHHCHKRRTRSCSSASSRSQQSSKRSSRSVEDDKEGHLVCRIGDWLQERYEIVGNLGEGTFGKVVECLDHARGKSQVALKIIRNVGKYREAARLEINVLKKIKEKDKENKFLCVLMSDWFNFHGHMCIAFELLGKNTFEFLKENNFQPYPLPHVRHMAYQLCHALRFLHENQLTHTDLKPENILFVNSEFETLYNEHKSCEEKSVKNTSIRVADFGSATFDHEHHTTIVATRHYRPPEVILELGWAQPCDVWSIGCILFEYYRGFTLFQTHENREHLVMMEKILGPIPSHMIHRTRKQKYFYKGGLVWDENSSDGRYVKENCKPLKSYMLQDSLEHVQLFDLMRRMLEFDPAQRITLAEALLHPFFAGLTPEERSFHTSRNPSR

Structure (SMILES)	inhibition at 0.1 µM [1] [%]	inhibition at 1 µM [1] [%]	inhibition at 0.1 µM [2] [%]	inhibition at 1 µM [2] [%]	inhibition at 0.1 µM [3] [%]	inhibition at 1 µM [3] [%]	inhibition at 0.1 µM [4] [%]	inhibition at 1 µM [4] [%]	inhibition at 0.1 µM [5] [%]	inhibition at 1 µM [5] [%]	inhibition at 0.1 µM [6] [%]	inhibition at 1 µM [6] [%]
COc1cc(-c2cc(-c3cccc(O)c3)cnc2N)cc(OC)c1OC [K02288, 3-[6-amino-5-(3,4,5-trimethoxy-phenyl)-pyridin-3-yl]-phenol]	-1	0	5.3	-2	0	-1	1.4	1.5	-2	-1	0.3	3.3
c1ccc2c(-c3cnn4cc(-c5ccc(N6CCNCC6)cc5)cnc34)ccnc2c1 [LDN-193189]	4.6	9	1.9	6.6	1	1.8	0.5	2.6	0.8	0.9	1	1.2
